Assay results as given in patent US20260232682A1, “GSPT1 DEGRADER COMPOUNDS” (Captor Therapeutics S.A., priority 2023, published 2026).

Assays:
[1] = molecular target: T1, [GSPT1]-[compound of formula (I)]-[CRBN/DDB1] complex (Homo sapiens, UniProt P15170+Q96SW2); experiment: HTRF ternary complex assay (GSPT1); assay type: binding; conditions: read-out: HTRF ternary complex Average pEC50 by molecule (converted)
Protocol: The effect of the molecular glue compounds of the invention on the formation of a ternary complex composed of [GSPT1]-[compound of formula (I)]-[CRBN/DDB1] was investigated.
Mix solution of proteins and reagents was prepared: • 48 nM GSPT1, 52.8 nM 6×His-CRBN/DDB1, 3 nM of Streptavidin-Eu cryptate ([…]) and 6.67 nM of Anti-6×his-d2 ([…]) was prepared in PPI Europium detection buffer (purchased from Cisbio) with 1 mM DTT.
The tested compounds in dose-response were dispensed onto a white 384-well low volume plate (Greiner, 784075). DMSO was backfilled to all wells, resulting in a final DMSO content of 0.5%. Wells containing only DMSO served as background.
The plate was sealed with transparent film and shaken using a VibroTurbulator for 60 sec at level 3.
The plate was then spun down shortly (10 sec, 1000 rcf) and incubated at 25° C. for 180 min.
The read-out was performed with plate reader (Pherastar, BMG Labtech) in time resolved fluorescence mode. Filter settings: TR 337 665 620.
The results were analyzed as follows: • 1) an average of fluorescence for background signal was calculated and used as a negative control; • 2) raw fluorescence values for tested compounds were normalized against negative controls; • 3) saturation curve was fitted to specific binding with Hill slope model; • 4) EC50 and pEC50 values were determined.

[2] = molecular target: T2, [IKZF1 ZF2]-[compound]-[CRBN/DDB1] ternary complex (Homo sapiens, UniProt Q13422+Q96SW2); experiment: AlphaLISA assay for off-target recruitment detection, IKZF1 ZF2; assay type: binding; conditions: 1 μM compound; normalized to Lenalidomide; read-out: Normalized ternary complex response, IKZF1 ZF2
T2 construct: IKZF1 ZF2
Protocol: (§1) The ability of the molecular glue compounds of the invention to mediate the proximity of CRBN with its known neo-substrates (shown in Table 3) was assessed using AlphaLISA to detect the formation of a [neo-substrate]-[compound of formula (I)]-[CRBN/DDB1] ternary complex.
(§2) Two types of protein solution were prepared: • neo-substrate, 40 μg/ml AlphaScreen Donor Beads (Table 3) in PBS (10 mM phosphate buffer, 137 mM NaCL, 2.7 mM KCl, pH 7.4) buffer supplemented with Tween-20 (Table 3) and 1 mM DTT, • 200 nM 6×His-CRBN/DDB1, 40 μg/ml AlphaLISA Anti-6×His Acceptor beads in PBS buffer with Tween-20 (Table 3) and 1 mM DTT.
(§3) The prepared solutions were incubated at room temperature for 30 min and then the solution containing the donor beads was mixed with the solution containing the acceptor beads.
(§4) The tested compounds were dispensed onto a white 384-well AlphaPlate 384 SW. DMSO was backfilled to all wells, resulting in a final DMSO content of 2%. Wells containing only DMSO served as background. Next, 10 μl of solution with donor and acceptor beads was added to the wells.
(§5) The plate was sealed with transparent film and shaken using a VibroTurbulator for 60 sec at room temperature, level 3. The plate was then spun down shortly (10 sec, 1000 rcf, room temperature) and incubated at 25° C. for 30 min.
(§6) The read-out was performed with PerkinElmer Enspire Multimode Plate Reader (method for AlphaLISA 384-well low volume, Filterset: λexc=680 nm, λem=615 nm).
(§7) The results were analyzed as follows: • 1) an average of luminescence for background signal was calculated and used as a negative control; • 2) an average of the maximum measured luminescence for reference compound (Table 3) was calculated and used as an internal positive control; • 3) raw luminescence values were normalized against positive and negative controls; • 4) Normalized responses to reference molecular glue were determined.

[3] = molecular target: T1, [GSPT1]-[compound of formula (I)]-[CRBN/DDB1] complex; experiment: AlphaLISA ternary complex formation assay (GSPT1); assay type: binding; conditions: 0.5 h; 1 μM compound; normalized to reference compound CC-885; read-out: Normalized AlphaLISA ternary complex average signal at 1 μM molecule
Protocol: The effect of the molecular glue compounds of the invention on the formation of a ternary complex composed of [GSPT1]-[compound of formula (I)]-[CRBN/DDB1] was investigated with two methods: AlphaLISA dose response assay or HTRF ternary complex assay.
Two types of protein solution were prepared: • 200 nM biotinylated GSPT1 (Table 3), 40 μg/ml AlphaScreen Streptavidin-coated Donor Beads in HBS (10 mM HEPES, 150 mM NaCL, pH 7.4) buffer with 0.1% Tween-20 and 1 mM DTT, • 200 nM 6×His-CRBN/DDB1, 40 μg/ml AlphaLISA Anti-6×His Acceptor beads in HBS buffer with 0.1% Tween-20 and 1 mM DTT.
as §3, §4, §5, §6
as §7, with “2)” for “2) an”, “(structure shown in Table 3 below)” for “(Table 3)”, “positive control” for “reference molecular glue”

[4] = molecular target: T3, [SALL4 ZF2]-[compound]-[CRBN/DDB1] ternary complex (Homo sapiens, UniProt Q96SW2+Q9UJQ4); experiment: AlphaLISA assay for off-target recruitment detection, SALL4 ZF2; assay type: binding; conditions: 1 μM compound; normalized to Lenalidomide; read-out: Normalized ternary complex response, SALL4 ZF2
T3 construct: SALL4 ZF2
Protocol: as §1, §2, §3, §4, §5, §6, §7

[5] = molecular target: T4, [IKZF2 ZF2]-[compound]-[CRBN/DDB1] ternary complex (Homo sapiens, UniProt Q96SW2+Q9UKS7); experiment: AlphaLISA assay for off-target recruitment detection, IKZF2 ZF2; assay type: binding; conditions: 1 μM compound; normalized to Helios modulator; read-out: Normalized ternary complex response, IKZF2 ZF2
T4 construct: IKZF2 ZF2
Protocol: as §1, §2, §3, §4, §5, §6, §7

[6] = molecular target: CRBN/DDB1 protein complex (Homo sapiens, UniProt Q96SW2); experiment: CRBN displacement TR-FRET assay; conditions: Thalidomide-Red tracer, 6×His-CRBN/DDB1; read-out: CRBN binding Ki
Protocol: CRBN/DDB1 protein complex was mixed with Thalidomide-Red and a compound to be tested (the “test compound”). The test solution contained PPI Europium detection buffer, 1 mM DTT, 6.8 nM Thalidomide-Red (the tracer), 5 nM 6×His-CRBN/DDB1 protein, 0.5 nM Anti-6× His-Eu cryptate, 1% DMSO. The test solution was added to a 384-well assay plate.
The plate was spun-down (1 min, 1000 rpm, 22° C.) and then shaken using a VibroTurbulator for 30 sec at room temperature (20-25° C.), with the frequency set to level 10. The assay plate with protein and the tracer was incubated for 180 min at room temperature (20-25° C.) prior to read-out with a plate reader. The read-out was performed with plate reader (Pherastar, BMG Labtech) in time resolved fluorescence mode. Filter settings: TR 337 665 620.
The CRBN displacement TR-FRET experiment was carried out with various concentrations of the test compounds in order to measure Ki values.
The Ki values of competitive inhibitors were calculated using the equation based on the IC50 values of relationship between compound concentration and measured […], the Kd value of the Thalidomide-Red and CRBN/DDB1 complex, and the concentrations of the protein and the tracer in the displacement assay (as described by Cheng and Prusoff, Biochem Pharmacol 1973; 22:3099-3108).

[7] = molecular target: [CK1α]-[compound]-[CRBN/DDB1] ternary complex (Homo sapiens, UniProt P48729+Q96SW2); experiment: AlphaLISA assay for off-target recruitment detection, CK1α; assay type: binding; conditions: 1 μM compound; normalized to FPFT-2216; read-out: Normalized ternary complex response, CK1α
Protocol: as §1, §2, §3, §4, §5, §6, §7

[8] = Chemical stability in MV-4-11 medium; conditions: 37° C., concentration 10 μM
Protocol: Next, 500 μL of each solution was transferred to the 96-deep-well plate. Three replicates for each compound were performed. Plate was afterwards incubated at 37° C. with shaking (220 rpm). 50 μL of sample were withdrawn for the each timepoint (0, 1, 3, 6, 24, 48, 72, and 168 hours) and immediately mixed with 50 μL of acetonitrile. Next, samples were centrifuged at 3900 rpm, 10° C. for 20 minutes. 40 μL of supernatant was diluted with 120 μL of acetonitrile containing internal standard (IS) (10 μM), mixed, and analyzed by LC-MS/MS.
Thermo Fisher Scientific Altis+ coupled with a Vanquish system were used for UHPLC-MS/MS analysis. Analytes were separated on a Kinetex XB-C18 2.6 μm, 50×2.1 mm column, using gradient of water with 0.1% (v/v) formic acid (solvent A) and acetonitrile with 0.1% (v/v) formic acid (solvent B): 0.0 min 5% B, 0.5 min 5% B, 1.0 min 70% B, 3.0 min 95% B, 3.5 min 95% B, 3.7 min 5% B, 5 min 5% B. The mobile phase flow rate was set to 0.3 mL/min and the column was kept in 40° C. 1 μL of samples were injected. The MS/MS analysis was performed using SRM mode in positive ionization. Source parameters were set as follow: Ion Source Type H-ESI, Spray Voltage 3800 V, Sheath Gas 50 Arb, Aux Gas 10 Arb, Sweep Gas 1 Arb, Ion Transfer Tube Temp 325° C., Vaporizer Temp 350° C., Collision Gas Pressure 1.5 mTorr, Q1/Q3 Resolution (FWHM) 0.7. Three transitions were monitored for each analyte and for the internal standard:
Quantitation was based on the peak area ratio between the test compound and IS. The amount of compound remaining in the sample was calculated as follow:
The slope of logarithmic curve of percent remaining versus time has been used for calculation of half-life (t_half). First, the elimination constant (k) was calculated using the equation:
Next, half-life (t_half) was calculated using equation:

Hep3B, Kelly, KG-1 = experiment: Growth inhibition of cancer cell lines (summary statement); assay type: cell-based; conditions: hepatocellular carcinoma (Hep3B), neuroblastoma (Kelly), leukemia (KG-1)

T1 sequence (P15170 whole entry): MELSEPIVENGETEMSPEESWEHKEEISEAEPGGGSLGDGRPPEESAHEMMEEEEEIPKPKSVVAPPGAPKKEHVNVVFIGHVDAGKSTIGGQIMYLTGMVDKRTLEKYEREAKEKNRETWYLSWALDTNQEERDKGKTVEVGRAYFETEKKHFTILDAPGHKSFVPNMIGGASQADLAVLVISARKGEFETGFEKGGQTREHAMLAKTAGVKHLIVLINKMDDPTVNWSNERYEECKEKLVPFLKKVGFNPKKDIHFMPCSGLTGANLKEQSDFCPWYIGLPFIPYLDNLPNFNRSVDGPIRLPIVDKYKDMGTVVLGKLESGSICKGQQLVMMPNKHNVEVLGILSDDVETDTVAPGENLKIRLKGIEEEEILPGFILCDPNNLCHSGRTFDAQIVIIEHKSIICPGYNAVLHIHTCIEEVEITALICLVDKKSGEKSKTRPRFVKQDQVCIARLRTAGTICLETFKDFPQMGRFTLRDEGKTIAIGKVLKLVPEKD
T1 sequence (Q96SW2 whole entry): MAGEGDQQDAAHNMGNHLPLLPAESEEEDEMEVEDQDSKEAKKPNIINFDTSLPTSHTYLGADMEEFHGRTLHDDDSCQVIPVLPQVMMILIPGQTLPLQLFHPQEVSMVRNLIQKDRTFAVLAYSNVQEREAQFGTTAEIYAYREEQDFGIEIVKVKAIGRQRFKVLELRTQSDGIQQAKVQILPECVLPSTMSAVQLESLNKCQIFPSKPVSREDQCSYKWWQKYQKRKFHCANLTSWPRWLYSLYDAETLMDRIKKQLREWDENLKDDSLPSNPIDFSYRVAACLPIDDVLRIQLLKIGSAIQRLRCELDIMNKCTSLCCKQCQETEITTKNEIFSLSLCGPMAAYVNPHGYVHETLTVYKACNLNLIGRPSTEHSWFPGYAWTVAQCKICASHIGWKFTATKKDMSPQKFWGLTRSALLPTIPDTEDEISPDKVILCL
T1 sequence (Q16531 whole entry partner): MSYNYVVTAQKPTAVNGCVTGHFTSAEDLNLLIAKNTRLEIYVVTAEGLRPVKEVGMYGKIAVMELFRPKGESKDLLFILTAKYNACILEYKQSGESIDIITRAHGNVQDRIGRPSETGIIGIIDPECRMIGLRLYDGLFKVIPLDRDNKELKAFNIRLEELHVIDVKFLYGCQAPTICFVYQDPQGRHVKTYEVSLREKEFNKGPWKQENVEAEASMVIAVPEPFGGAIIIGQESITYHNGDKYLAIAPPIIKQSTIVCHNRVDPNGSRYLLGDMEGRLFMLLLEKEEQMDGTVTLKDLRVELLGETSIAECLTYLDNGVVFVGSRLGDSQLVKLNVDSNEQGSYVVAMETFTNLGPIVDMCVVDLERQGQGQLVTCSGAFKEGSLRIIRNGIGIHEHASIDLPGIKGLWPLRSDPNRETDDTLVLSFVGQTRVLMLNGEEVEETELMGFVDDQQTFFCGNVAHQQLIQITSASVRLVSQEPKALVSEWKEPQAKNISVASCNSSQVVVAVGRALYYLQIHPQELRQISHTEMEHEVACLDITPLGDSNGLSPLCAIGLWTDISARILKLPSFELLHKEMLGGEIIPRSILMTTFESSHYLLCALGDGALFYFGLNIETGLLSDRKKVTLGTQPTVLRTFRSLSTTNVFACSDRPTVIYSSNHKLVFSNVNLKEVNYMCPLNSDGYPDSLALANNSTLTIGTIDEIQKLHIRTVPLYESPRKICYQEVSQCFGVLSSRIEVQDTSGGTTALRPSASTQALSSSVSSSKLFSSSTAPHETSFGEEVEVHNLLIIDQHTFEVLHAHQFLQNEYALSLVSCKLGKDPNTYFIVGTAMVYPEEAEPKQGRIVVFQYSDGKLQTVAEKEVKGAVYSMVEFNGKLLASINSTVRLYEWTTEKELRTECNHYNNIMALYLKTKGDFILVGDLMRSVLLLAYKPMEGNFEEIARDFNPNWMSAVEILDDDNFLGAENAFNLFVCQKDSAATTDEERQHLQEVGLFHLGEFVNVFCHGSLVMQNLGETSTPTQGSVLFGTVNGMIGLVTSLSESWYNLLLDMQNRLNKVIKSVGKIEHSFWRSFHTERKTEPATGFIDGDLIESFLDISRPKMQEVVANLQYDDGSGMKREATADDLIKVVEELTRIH
T2 sequence (Q13422 145-167 limits assumed): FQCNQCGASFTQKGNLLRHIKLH
T2 sequence (Q96SW2 whole entry): as the sequence (Q96SW2 whole entry) above
T2 sequence (Q16531 whole entry partner): as the sequence (Q16531 whole entry partner) above
T3 sequence (Q9UJQ4 410-432 limits assumed): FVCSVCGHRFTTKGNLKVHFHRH
T3 sequence (Q96SW2 whole entry): as the sequence (Q96SW2 whole entry) above
T3 sequence (Q16531 whole entry partner): as the sequence (Q16531 whole entry partner) above
CRBN/DDB1 protein complex, sequence (Q96SW2 whole entry, species assumed): as the sequence (Q96SW2 whole entry) above
CRBN/DDB1 protein complex, sequence (Q16531 whole entry partner, species assumed): as the sequence (Q16531 whole entry partner) above
[CK1α]-[compound]-[CRBN/DDB1] ternary complex, sequence (P48729 whole entry): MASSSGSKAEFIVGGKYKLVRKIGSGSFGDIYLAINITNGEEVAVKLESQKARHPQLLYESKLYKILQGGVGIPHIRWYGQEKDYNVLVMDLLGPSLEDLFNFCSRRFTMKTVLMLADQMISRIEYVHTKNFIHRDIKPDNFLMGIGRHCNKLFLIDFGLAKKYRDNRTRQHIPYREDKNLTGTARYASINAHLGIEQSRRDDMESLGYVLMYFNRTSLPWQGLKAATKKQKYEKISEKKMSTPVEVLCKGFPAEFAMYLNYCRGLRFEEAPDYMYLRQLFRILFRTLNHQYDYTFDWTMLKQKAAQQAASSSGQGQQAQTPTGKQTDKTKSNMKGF
[CK1α]-[compound]-[CRBN/DDB1] ternary complex, sequence (Q96SW2 whole entry): as the sequence (Q96SW2 whole entry) above
[CK1α]-[compound]-[CRBN/DDB1] ternary complex, sequence (Q16531 whole entry partner): as the sequence (Q16531 whole entry partner) above
T4 sequence (Q9UKS7 140-162 limits assumed): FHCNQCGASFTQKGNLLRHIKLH
T4 sequence (Q96SW2 whole entry): as the sequence (Q96SW2 whole entry) above
T4 sequence (Q16531 whole entry partner): as the sequence (Q16531 whole entry partner) above

Row | EC50 [1] [µM] | activation at 1 µM [2] [%] | activation at 1 µM [3] [%] | activation at 1 µM [4] [%] | activation at 1 µM [5] [%] | Ki [6] [µM] | activation at 1 µM [7] [%] | % remaining at 24 hrs [8] | t_half [hours] [8] | Structure (SMILES) | inhibition of growth of cancer types (Hep3B, Kelly, KG-1)
1 | 0.316 to 3.16 | 10 to 25 | 10 to 50 | ≥ 50 | < 10 | 0.5 to 1 | < 10 | – | – | Cc1nc2ccc(COC(=O)NC3CCCCC3)cc2cc1N1CCC(=O)NC1=O [Compound 60, (3-(2,4-dioxotetrahydropyrimidin-1(2H)-yl)-2-methylquinolin-6-yl)methyl cyclohexylcarbamate] | –
2 | > 3.16 | < 10 | < 10 | < 10 | < 10 | > 1 | < 10 | – | – | Cc1ccc(NC(=O)OCc2cc3nc(C)c(C4CCC(=O)NC4=O)cc3cc2C)cc1Cl (centres unmarked) [Compound 68, (3-(2,6-dioxopiperidin-3-yl)-2,6-dimethylquinolin-7-yl)methyl (3-chloro-4-methylphenyl)carbamate] | –
3 | – | – | – | – | – | – | – | d (5%≤d<10%) | C (5 hrs≤C<10 hrs) | Cc1nc2cccc(N)c2c(=O)n1C1CCC(=O)NC1=O (centres unmarked) [avadomide] | –
4 | – | – | – | – | – | – | – | e (e<5%) | D (D<5 hrs) | Nc1cccc2c1CN(C1CCC(=O)NC1=O)C2=O (centres unmarked) [lenalidomide] | inactive
5 | – | – | – | – | – | – | – | e (e<5%) | D (D<5 hrs) | Nc1cccc2c1C(=O)N(C1CCC(=O)NC1=O)C2=O (centres unmarked) [pomalidomide] | inactive

Row | Structure (SMILES) | EC50 [1] [µM] | activation at 1 µM [2] [%] | activation at 1 µM [3] [%] | activation at 1 µM [4] [%] | activation at 1 µM [5] [%] | Ki [6] [µM] | activation at 1 µM [7] [%] | % remaining at 24 hrs [8] | t_half [hours] [8] | inhibition of growth of cancer types (Hep3B, Kelly, KG-1)
6 | O=C1CCC(N2Cc3cc(CNC(=O)C(F)(F)c4ccc(Cl)cc4)ccc3C2=O)C(=O)N1 (centres unmarked) [eragidomide] | – | – | – | – | – | – | – | – | D (D<5 hrs) | –
